Results from patent US20250221979A1, “NOVEL HETEROCYCLIC COMPOUND” (SHOUYAO HOLDINGS (BEIJING) CO., LTD., priority 2022, published 2025).
Counter-ions that a name gives are not always drawn.

Target: human MAT2A enzyme (Homo sapiens (Human), UniProt P31153)
Test: In vitro enzymatic inhibition activity assay on MAT2A (PiColorLock phosphate detection)
Assay type: biochemical
Details: purified human MAT2A 10 nM, ATP 50 μM, L-methionine 100 μM, 6 h at 23° C.; read-out: MAT2A inhibitory activity IC50
Protocol: Enzymatic activity assays of compounds of this patent against MAT2A (to detect half inhibitory concentration IC50 values of the compounds) were performed using the phosphate detection kit PiColorLockTM (ab270004, purchased from Abcam). This method utilized the principle that purified human MAT2A enzyme catalyzes the formation of S-adenosylmethionine (SAM) from L-methionine and ATP to release free phosphate, and used the spectrophotometric method to quantify phosphate, so as to determine the enzymatic activity of MAT2A. Compounds were diluted in a 10-fold gradient starting at 1 mM with 100% DMSO (for a total of 8 concentrations) and 2 μL of each concentration was added to 48 μL of reaction buffer (50 mM Tris-HCl PH 7.5, 50 mM KCl, 10 mM MgCl2, 0.01% Brij-35, 0.01% BSA, 1 mM DTT) and mixed well. The final diluted compound was prepared, and 5 μL of MAT2A enzyme (final concentration of 10 nM), 5 μL of ATP (final concentration of 50 μM), and 5 μL of L-methionine (final concentration of 100 μM) were added to each well of a 384-well plate (#3701, purchased from CORNING). After the 384-well plate was placed in the incubator at 23° C. for 6 h, 5 μL of PiColorLock reagent diluted Accelerator (dilution ratio 1:100) was added to each well, and the reaction was stopped by incubating in the incubator at 23° C. for 5 min. 2 μL of Stabiliser was added, the absorbance was read at 630 nm on BMG CLARIOstar, and the IC50 value of the compound was calculated by using GraphPad Prism software.
Under the conditions of this experiment, the inhibition of MAT2A by test compounds can be expressed as an IC50 value for the inhibition of the level of phosphate production during the enzymatic reaction.

human MAT2A enzyme, sequence (P31153 whole entry): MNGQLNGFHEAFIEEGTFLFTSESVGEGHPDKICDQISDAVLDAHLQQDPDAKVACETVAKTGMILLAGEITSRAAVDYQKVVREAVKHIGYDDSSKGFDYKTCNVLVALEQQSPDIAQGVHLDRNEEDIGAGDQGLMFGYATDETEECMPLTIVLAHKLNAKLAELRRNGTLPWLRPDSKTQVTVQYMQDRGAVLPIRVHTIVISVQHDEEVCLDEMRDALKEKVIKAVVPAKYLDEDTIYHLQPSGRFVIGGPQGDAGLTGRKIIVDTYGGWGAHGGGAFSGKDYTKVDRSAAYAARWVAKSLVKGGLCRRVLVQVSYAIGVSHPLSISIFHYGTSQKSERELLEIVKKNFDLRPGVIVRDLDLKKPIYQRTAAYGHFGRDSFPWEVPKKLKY

Point of comparison: `COC(=O)c1c(N)c2ccc(C(F)(F)F)cc2n(-c2ccc(C)c(N)c2)c1=O` [Example 253, methyl 4-amino-1-(3-amino-4-methylphenyl)-2-oxo-7-(trifluoromethyl)-1,2-dihydroquinoline-3-carboxylate], IC50 1.76 nM. Against it:
- COC(=O)c1c(N)c2ccc(Br)cc2n(-c2ccc(OC(F)F)cc2)c1=O [Example 83, methyl 4-amino-7-bromo-1-(4-((difluoromethyl)oxy)phenyl)-2-oxo-1,2-dihydroquinoline-3-carboxylate] — within 1.5-fold, 1.21 nM
- COC(=O)c1c(N)c2ccc(I)cc2n(-c2ccc(Cl)c3cnccc23)c1=O [Example 227, methyl 4-amino-1-(8-chloroisoquinolin-5-yl)-7-iodo-2-oxo-1,2-dihydroquinoline-3-carboxylate] — within 1.5-fold, 1.96 nM
- CCc1ccccc1-n1c(=O)c(C(=O)OC)c(N)c2ccc(C(F)(F)F)cc21 [Example 145, methyl 4-amino-1-(2-ethylphenyl)-2-oxo-7-(trifluoromethyl)-1,2-dihydroquinoline-3-carboxylate] — 2.6-fold higher, 4.6 nM
- [2H]C([2H])([2H])OC(=O)c1c(N)c2ccc(C(F)(F)F)cc2n(-c2ccc(C(C)O)cc2)c1=O (stereo not drawn) [Example 331, methyl-d3 4-amino-1-(4-(1-hydroxyethyl)phenyl)-2-oxo-7-(trifluoromethyl)-1,2-dihydroquinolin-3-carboxylate] — within 1.5-fold, 2.49 nM
- COC(=O)c1c(N)c2ccc(I)cc2n(-c2ccc(C(C)O)cc2)c1=O (stereo not drawn) [Example 298, methyl 4-amino-1-(4-(1-hydroxyethyl)phenyl)-2-oxo-7-iodo-1,2-dihydroquinoline-3-carboxylate] — 4.1-fold lower, 0.43 nM
- COC(=O)c1c(N)c2ccc(C3CC3)cc2n(-c2ccccc2)c1=O [Example 66, methyl 4-amino-7-cyclopropyl-2-oxo-1-phenyl-1,2-dihydroquinoline-3-carboxylate] — 3.8-fold higher, 6.76 nM
- COC(=O)c1c(N)c2ccc(OC(F)F)cc2n(-c2ccc([C@@H](C)O)cc2)c1=O [Example 354, methyl (R)-4-amino-7-(difluoromethoxy)-1-(4-(1-hydroxyethyl)phenyl)-2-oxo-1,2-dihydroquinoline-3-carboxylate] — 3.8-fold lower, 0.46 nM
- COC(=O)c1c(N)c2ccc(Br)cc2n(-c2ccc(C)cc2)c1=O [Example 101, methyl 4-amino-7-bromo-1-(4-methylphenyl)-2-oxo-1,2-dihydroquinoline-3-carboxylate] — 3-fold lower, 0.59 nM
- COC(=O)c1c(N)c2ccc(Br)cc2n(-c2cccc3c2COC3)c1=O [Example 222, methyl 4-amino-7-bromo-1-(1,3-dihydro-2-benzofuran-4-yl)-2-oxo-1,2-dihydroquinoline-3-carboxylate] — 4.8-fold higher, 8.38 nM
- COC(=O)c1c(N)c2ccc(C)nc2n(-c2ccc([C@@H](C)O)cc2)c1=O [Example 343, methyl 4-amino-(1-(4-(1R)-1-hydroxyethyl)phenyl)-7-methyl-2-oxo-pyrido[2,3-b]pyridin-3-carboxylate] — within 1.5-fold, 2.39 nM
- COC(=O)c1c(N)c2ccc(Br)cc2n(-c2ccc(N)c3cnccc23)c1=O [Example 178, methyl 4-amino-1-(8-aminoisoquinolin-5-yl)-7-bromo-2-oxo-1,2-dihydroquinoline-3-carboxylate] — within 1.5-fold, 2.59 nM
- COC(=O)c1c(N)c2ccc(Cl)cc2n(-c2ccc(N)cc2)c1=O [Example 322, methyl 4-amino-7-chloro-1-(4-aminophenyl)-2-oxo-1,2-dihydroquinoline-3-carboxylate] — within 1.5-fold, 1.84 nM
- COC(=O)c1c(N)c2ccc(C(F)(F)F)cc2n(-c2ccc(N)cc2C)c1=O [Example 237, methyl 4-amino-1-(4-amino-2-methylphenyl)-2-oxo-7-(trifluoromethyl)-1,2-dihydroquinoline-3-carboxylate] — within 1.5-fold, 1.64 nM
- COC(=O)c1c(N)c2ccc(Br)cc2n(-c2ccc(Br)cc2)c1=O [Example 107, methyl 4-amino-7-bromo-1-(4-bromophenyl)-2-oxo-1,2-dihydroquinoline-3-carboxylate] — within 1.5-fold, 1.52 nM
- COC(=O)c1c(N)c2ccc(C3CC3)cc2n(-c2ccc([C@@H](C)O)cc2)c1=O [Example 353, methyl 4-amino-(1-(4-(1R)-1-hydroxyethyl)phenyl)-7-cyclopropyl-2-oxo-1,2-dihydroquinoline-3-carboxylate] — within 1.5-fold, 1.25 nM
- [2H]C([2H])([2H])OC(=O)c1c(N)c2ccc(OC(F)F)cc2n(-c2ccc(N)cc2C)c1=O [Example 429, methyl-d3 4-amino-1-(2-methyl-4-aminophenyl)-7-(difluoromethoxy)-2-oxo-1,2-dihydroquinolin-3-carboxylate] — 1.5-fold lower, 1.15 nM
- COC(=O)c1c(N)c2ccc(C(F)(F)F)cc2n(-c2ccc3ocnc3c2)c1=O [Example 128, methyl 4-amino-1-(benzo(2,1-d)(1,3)oxazol-5-yl)-2-oxo-7-(trifluoromethyl)-1,2-dihydroquinoline-3-carboxylate] — 2-fold higher, 3.49 nM
- COC(=O)c1c(N)c2ccc(C(F)(F)F)cc2n(-c2ccccc2Br)c1=O [Example 93, methyl 4-amino-1-(2-bromophenyl)-2-oxo-7-(trifluoromethyl)-1,2-dihydroquinoline-3-carboxylate] — 4.2-fold higher, 7.39 nM
- COC(=O)c1c(N)c2ccc(C(F)(F)F)cc2n(-c2ccc3c(c2)OCC3)c1=O [Example 111, methyl 4-amino-1-(2,3-dihydro-1-benzofuran-6-yl)-2-oxo-7-(trifluoromethyl)-1,2-dihydroquinoline-3-carboxylate] — 2.3-fold higher, 4.06 nM
- COC(=O)c1c(N)c2ccc(C(F)(F)F)cc2n(-c2ccc3ccoc3c2)c1=O [Example 187, methyl 4-amino-1-(1-benzofuran-6-yl)-2-oxo-7-(trifluoromethyl)-1,2-dihydroquinoline-3-carboxylate] — 2.3-fold lower, 0.76 nM
- C=Cc1ccc2c(N)c(C(=O)OC)c(=O)n(-c3ccccc3)c2c1 [Example 24, methyl 4-amino-7-vinyl-2-oxo-1-phenyl-1,2-dihydroquinoline-3—carboxylate] — within 1.5-fold, 2.34 nM
- COC(=O)c1c(N)c2ccc(C(F)(F)F)cc2n(-c2cccc3ccncc23)c1=O [Example 192, methyl 4-amino-1-(isoquinolin-8-yl)-2-oxo-7-(trifluoromethyl)-1,2-dihydro quinoline-3-carboxylate] — 3.7-fold higher, 6.47 nM
- COC(=O)c1c(N)c2ccc(C(F)(F)F)cc2n(-c2cccc(CO)c2)c1=O [Example 21, methyl 4-amino-1-(3-(hydroxymethyl)phenyl)-2-oxo-7-(trifluoromethyl)-1,2-dihydroquinoline-3-carboxylate] — 3.7-fold higher, 6.58 nM
- Nc1c(C(=O)OC2CC2)c(=O)n(-c2ccccc2)c2cc(Cl)ccc12 [Example 49, cyclopropyl 4-amino-7-chloro-2-oxo-1-phenyl-1,2-dihydroquinolin-3-carboxylate] — 4.9-fold higher, 8.58 nM
- COC(=O)c1c(N)c2ccc(C(F)F)nc2n(-c2ccc(C(C)O)cc2)c1=O (stereo not drawn) [Example 366, methyl 4-amino-7-(difluoromethyl)-1-(4-(1-hydroxyethyl)phenyl)-2-oxo-1,2-dihydro-1,8-naphthyridine-3-carboxylate] — 1.8-fold lower, 1 nM
- COC(=O)c1c(N)c2ccc(Br)cc2n(-c2ccccc2N)c1=O [Example 250, methyl 4-amino-1-(2-aminophenyl)-7-bromo-2-oxo-1,2-dihydroquinoline-3-carboxylate] — 3.4-fold higher, 6.06 nM
- COC(=O)c1c(N)c2ccc(Br)nc2n(-c2cnc(Cl)cc2C)c1=O [Example 249, methyl 4-amino-7-bromo-1-(6-chloro-4-methylpyridin-3-yl)-2-oxo-1,2-dihydro-1,8-naphthyridine-3-carboxylate] — 1.7-fold higher, 2.99 nM
- COC(=O)c1c(N)c2ccc(I)cc2n(-c2ccccc2Cl)c1=O [Example 20, methyl 4-amino-7-iodo-1-(2-chlorophenyl)-2-oxo-1,2-dihydroquinoline-3-carboxylate] — 3.4-fold higher, 5.98 nM
- COC(=O)c1c(N)c2ccc(Br)nc2n(-c2ccc(C)nc2)c1=O [Example 258, methyl 4-amino-7-bromo-1-(6-methylpyridin-3-yl)-2-oxo-1,2-dihydro-1,8-naphthyridine-3-carboxylate] — within 1.5-fold, 1.31 nM
- CCc1ccc(-n2c(=O)c(C(=O)OC)c(N)c3ccc(C(F)(F)F)cc32)cc1 [Example 155, methyl 4-amino-1-(4-ethylphenyl)-2-oxo-7-(trifluoromethyl)-1,2-dihydroquinoline-3-carboxylate] — within 1.5-fold, 1.93 nM
- CNc1ccc(-n2c(=O)c(C(=O)OC)c(N)c3ccc(C(F)(F)F)cc32)cc1 [Example 115, methyl 4-amino-1-(4-(methylamino)phenyl)-2-oxo-7-(trifluoromethyl)-1,2-dihydroquinoline-3-carboxylate hydrochloride] — 1.6-fold higher, 2.89 nM
- COC(=O)c1c(N)c2ccc(C(F)(F)F)cc2n(Cc2ccccc2)c1=O [Example 29, methyl 4-amino-1-benzyl-2-oxo-7-(trifluoromethyl)-1,2-dihydroquinoline-3-carboxylate] — 2.2-fold higher, 3.79 nM
